Where “and” joins values, the source holds several entries; their conditions need not be identical. Equal values may be shown once. Read-outs that look alike come from different tables or passages of the source.
Legend:
[1] = Pharmacokinetics of Compound A in chronic HBV patients, 28 day treatment; type: in vivo, human
Excerpt: In part 2 of this study (FIG. 1, sessions 8-9), the objective was to evaluate the safety, PK, and antiviral activity of Compound A in treatment naïve, chronic hepatitis B patients over a 28-day treatment period. The patient criteria were: • HBeAg-positive or negative • Plasma HBV DNA>2.0 log 10 IU/mL • ALT/AST<2.5×ULN • METAVIR stage<F3. 1.1 Patient Baseline Characteristics
The exposure (Cmax, AUC) increased in a dose-dependent manner with time-linear PK. The pharmacokinetics of Compound A were not markedly different between healthy volunteers and patients. Mean Compound A exposures in patients with CHB could be predicted from data in healthy volunteers. Mean (±SD) exposure in the 75 mg arm was within 90% prediction interval. […] Apparent clearance was low and similar in the two dosing groups (1 and 0.9 L/h at 25 mg and 75 mg, respectively).

[2] = Oral bioavailability of Compound A 25-mg and 100-mg oral tablets, fasted and fed, in healthy adult subjects; type: in vivo, human; conditions: for Tmax: read-out: tmax (median)
Protocol: The primary objectives were to evaluate the oral bioavailability of Compound A when administered as single dose of 150 mg, composed of 6×25-mg oral tablets, under fasted and fed conditions, and as single dose of 300 mg, composed of 3×100-mg oral tablets, under fasted conditions in healthy adult subjects Part I was conducted to assess the bioavailability of new 25 mg oral tablets of Compound A under fasted and fed conditions, and of new 100 mg oral tablets of Compound A under fasted conditions, in healthy adult subjects. In Treatment Period 1 of Part I, all 16 subjects received a single 150 mg dose (6×25 mg oral tablets) under fed conditions (Treatment A). Thereafter, subjects were randomly assigned to either Arm 1 or Arm 2 in a 1:1 ratio. In Arm 1, subjects received a single 150 mg dose (6×25 mg oral tablets) under fasted conditions in Treatment Period 2 (Treatment B). In Arm 2, subjects received a single 300 mg dose (3×100 mg oral tablets) under fasted conditions in Treatment Period 2 (Treatment C). Full pharmacokinetic (PK) profiles of Compound A were determined over approximately 768 hours […] after Compound A administration on Day 1 of each treatment period. Safety and tolerability were assessed throughout the study. In Part I, 16 healthy adult subjects were included. After Treatment A (150 mg Compound A, fed) in Treatment Period 1, subjects were randomly assigned to either Arm 1 (n=8; Treatment B [150 mg Compound A, fasted]) or Arm 2 (Treatment C [[…]; 300 mg Compound A, fasted]) in a 1:1 ratio in Treatment Period 2. Fifteen subjects completed study participation in Part I, but all 16 subjects were included in the PK and safety analyses. […] Subjects had to be healthy on the basis of medical and surgical history, physical examination, 12 lead electrocardiogram (ECG), vital signs, and clinical laboratory tests performed at screening. Male and female subjects had to adhere to the contraceptive requirements as specified in the protocol. The study consisted of a screening phase, an admission phase, a treatment phase, and a follow-up phase (posttreatment phase). During the follow-up phase, subjects returned to the study site 10-14 days and 30-35 days after study drug administration in the last treatment period for a follow-up visit. The duration of each treatment phase was 33±3 days and the study duration per individual subject was at least 61 days (including admission and follow-up period), screening period not included.

[3] = 150 mg, 6 × 25 mg, Fasting, Treatment B
[4] = 150 mg, 6 × 25 mg, Fasting, Treatment B (Reference)
[5] = 150 mg, 6 × 25 mg, Fed, Treatment A
[6] = 300 mg, 3 × 100 mg, Fasting, Treatment C
[7] = 300 mg, 3 × 100 mg, Fasting, Treatment C (Test)
[8] = Treatment A (fed) vs Treatment B (fasted), 150 mg
[9] = Treatment C (3 × 100 mg) vs Treatment B (6 × 25 mg), fasting

Apparent clearance ([1]; 25 mg): 1 L/h | Mean dose normalized AUC 0-24 h ([1]; 25 mg): 1109 ng·h/mL | Mean dose normalized Cmax at steady state ([1]; 25 mg): 56.6 ng/mL | dose proportionality of pharmacokinetics ([1]; 25 mg and 75 mg arms): dose-proportional | Apparent clearance ([1]; 75 mg): 0.9 L/h | Mean dose normalized AUC 0-24 h ([1]; 75 mg): 1109 ng·h/mL | Mean dose normalized Cmax at steady state ([1]; 75 mg): 53.2 ng/mL | AUClast, dose normalized to 25 mg (mean) [2, 3]: 29467 ng·h/mL | AUC∞, dose normalized to 25 mg (mean) [2, 3]: 30318 ng·h/mL | Cmax, dose normalized to 25 mg (mean) [2, 3]: 320 ng/mL | AUClast, dose normalized (to 25 mg), Geometric Mean [2, 4]: 27226 ng·h/mL | AUC∞, dose normalized (to 25 mg), Geometric Mean [2, 4]: 28011 ng·h/mL | Cmax, dose normalized (to 25 mg), Geometric Mean [2, 4]: 294 ng/mL | AUClast, dose normalized to 25 mg (mean) [2, 5]: 28502 ng·h/mL | AUC∞, dose normalized to 25 mg (mean) [2, 5]: 29580 ng·h/mL | Cmax, dose normalized to 25 mg (mean) [2, 5]: 257 ng/mL | AUClast, dose normalized to 25 mg (mean) [2, 6]: 30951 ng·h/mL | AUC∞, dose normalized to 25 mg (mean) [2, 6]: 32747 ng·h/mL | Cmax, dose normalized to 25 mg (mean) [2, 6]: 231 ng/mL | AUClast, dose normalized (to 25 mg), Geometric Mean [2, 7]: 30835 ng·h/mL | AUC∞, dose normalized (to 25 mg), Geometric Mean [2, 7]: 32329 ng·h/mL | Cmax, dose normalized (to 25 mg), Geometric Mean [2, 7]: 231 ng/mL | AUClast Geometric Mean Ratio [2, 8]: 101.05% | AUC∞ Geometric Mean Ratio [2, 8]: 101.91% | Cmax Geometric Mean Ratio [2, 8]: 85.8% and 85.84% | Cmax lower under fed conditions [2, 8]: 14.2% | Mean (range) t½term ([2]; Treatment A, 150 mg fed): 134.3 (65.7-221.6) hours | Mean (range) t½term ([2]; Treatment B, 150 mg fasted): 123.9 (72.3-195.7) hours | AUClast, dose normalized, Geometric Mean Ratio [2, 9]: 113.26% | AUC∞, dose normalized, Geometric Mean Ratio [2, 9]: 115.42% | Cmax, dose normalized, Geometric Mean Ratio [2, 9]: 78.4% and 78.44% | dose normalized Cmax lower for the 100 mg tablet strength compared to the 25 mg tablet strength ([2]; Treatment C vs Treatment B, fasted): 21.6% | Mean (range) t½term ([2]; Treatment C, 300 mg fasted): 161.1 (111.5-257.3) hours | AUC(0-t) ([2]; both sexes, human, in vivo, oral, 150 mg, 6 × 25 mg, Fasting, Treatment B (Reference), read-out: AUClast, Geometric Mean): 163 µg·h/mL | AUC(0-inf) ([2]; both sexes, human, in vivo, oral, 150 mg, 6 × 25 mg, Fasting, Treatment B (Reference), read-out: AUC∞, Geometric Mean): 168 µg·h/mL | Cmax ([2]; both sexes, human, in vivo, oral, 150 mg, 6 × 25 mg, Fasting, Treatment B (Reference), read-out: Cmax, Geometric Mean): 1770 ng/mL | AUC(0-t) ([2]; both sexes, human, in vivo, oral, 150 mg, 6 × 25 mg, Fasting, Treatment B, read-out: AUClast (mean)): 177 µg·h/mL | AUC(0-inf) ([2]; both sexes, human, in vivo, oral, 150 mg, 6 × 25 mg, Fasting, Treatment B, read-out: AUC∞ (mean)): 182 µg·h/mL | Cmax ([2]; both sexes, human, in vivo, oral, 150 mg, 6 × 25 mg, Fasting, Treatment B, read-out: Cmax (mean)): 1920 ng/mL | Tmax ([2]; both sexes, human, in vivo, oral, 150 mg, 6 × 25 mg, Fasting, Treatment B): 1.75 h | Cmax ([2]; both sexes, human, in vivo, oral, 150 mg, 6 × 25 mg, Fed (Standard Breakfast), Treatment A, read-out: Cmax (mean)): 1540 ng/mL | AUC(0-t) ([2]; both sexes, human, in vivo, oral, 150 mg, 6 × 25 mg, Fed, Treatment A (Test), read-out: AUClast, Geometric Mean): 165 µg·h/mL | AUC(0-inf) ([2]; both sexes, human, in vivo, oral, 150 mg, 6 × 25 mg, Fed, Treatment A (Test), read-out: AUC∞, Geometric Mean): 171 µg·h/mL | Cmax ([2]; both sexes, human, in vivo, oral, 150 mg, 6 × 25 mg, Fed, Treatment A (Test), read-out: Cmax, Geometric Mean): 1520 ng/mL | AUC(0-t) ([2]; both sexes, human, in vivo, oral, 150 mg, 6 × 25 mg, Fed, Treatment A, read-out: AUClast (mean)): 171 µg·h/mL | AUC(0-inf) ([2]; both sexes, human, in vivo, oral, 150 mg, 6 × 25 mg, Fed, Treatment A, read-out: AUC∞ (mean)): 177 µg·h/mL | Tmax ([2]; both sexes, human, in vivo, oral, 150 mg, 6 × 25 mg, Fed, Treatment A): 4 h | AUC(0-t) ([2]; both sexes, human, in vivo, oral, 300 mg, 3 × 100 mg, Fasting, Treatment C, read-out: AUClast (mean)): 371 µg·h/mL | AUC(0-inf) ([2]; both sexes, human, in vivo, oral, 300 mg, 3 × 100 mg, Fasting, Treatment C, read-out: AUC∞ (mean)): 393 µg·h/mL | Cmax ([2]; both sexes, human, in vivo, oral, 300 mg, 3 × 100 mg, Fasting, Treatment C, read-out: Cmax (mean)): 2770 ng/mL | Tmax ([2]; both sexes, human, in vivo, oral, 300 mg, 3 × 100 mg, Fasting, Treatment C): 3 h | clearance ([2]; both sexes, human, in vivo, oral, over all treatments and individuals, read-out: Clearance (CUF)): 7.83 to 25.8 mL/min
Compound: C[C@H](NS(=O)(=O)c1cc(C(=O)Nc2ccc(F)c(C#N)c2)n(C)c1)C(F)(F)F [Compound A]

Source: patent US10973801B2, “Capsid assembly modulator dosing regimen” (Janssen Sciences Ireland Unlimited Company, priority 2018, dated 2021)
